Patent US20230416168A1 (EUROCHEM ANTWERPEN, priority 2020, published 2023)

Test system: NH3 or NH2OH oxidation in N. europaea cells
Test: Nitrosomonas europaea ammonia vs. hydroxylamine oxidation assay
Type: cell-based
Settings: compounds 50 μM, NO2- after 30 min; for Nitrification from NH2OH (% compared to DMSO): 1 mM NH2OH as N-source; for Nitrification from NH3 (% compared to DMSO): NH4+ 1 mM as N-source
Method: Two days old, late-log phase cultures with a NO2− concentration between 10 and 20 mM were washed 3 times in fresh growth medium (without N) and finally 4 times overconcentrated via centrifugation (4000 rpm, 15 min, 4° C.). Transparent, flat bottom 96-well plate (Cat. No. 353072, Falcon® 96 Well Clear Flat Bottom Microplate, Corning®) were filled with 150 μl culture per well using a dispenser (Multidrop™ Combi Reagent Dispenser, Thermo Scientific™). Compounds (final concentration 50 μM) were added in triplicate to the multi-well plate by use of a Tecan robot (Freedom EVO®, Tecan). Thiourea (positive control for inhibition of NH3 oxidation—final concentration 100 μM) and phenylhydrazine hydrochloride (positive control for inhibition of NH2OH oxidation—final concentration 1 mM) were added to the outer two columns. Each plate was made in duplicate to add either 500 μM (NH4)2SO4 (final [NH4+]=1 mM) or 1 mM NH2OH. All plates were separately wrapped in Parafilm. Stacks of 4 plates were put on top of a 96-well plate filled with 100 μl MilliQ per well, covered with aluminum foil and shaken (±150 rpm) at 28° C. To prevent read-out of secondary effects on NO2− production, NO2− was measured only 30 min later. For this, the samples were first 2 times diluted by pipetting 15 μl in 15 μl fresh growth medium in 96-well intermediate plates (Cat. Ref. PCR-96-FS-C, 96-well PCR Microplate, Axygen®) to then mix 15 μl of the diluted samples with 15 μl Griess reagent in the wells of a transparent, flat bottom 384-well plate (Cat. No. X^7001, Low Profile Microplate, Molecular Devices) that was measured spectrophotometrically at 540 nm (EnVision, Perkin Elmer®).
To get insights on the targeted metabolic pathway and to discriminate between compounds that specifically affect NH3 oxidation or that affect another pathway, three representative novel nitrification inhibitors (Examples 1, 5 and 6) were tested in the “ammonia vs hydroxylamine oxidation assay” in which NO2− production from NH3 was compared with NO2− production from NH2OH.

Row | Compound | Nitrification from NH2OH (% compared to DMSO) [%] | Nitrification from NH3 (% compared to DMSO) [%]
1 | CN(Cc1c(Cl)nc2sccn12)CN1CCSC1=S [Example 1, 3-[[(6-chloroimidazo[2,1-b][1,3]thiazol-5-yl)methyl-methylamino]methyl]-1,3-thiazolidine-2-thione] | 81 | 12
2 | CN(Cc1nc2ccccc2s1)CN1CCOC1=S [Example 5, 3-[[1,3-benzothiazol-2-ylmethyl(methyl)amino]methyl]-1,3-oxazolidine-2-thione] | 77 | 17
